For data set [1], the target named is T1, JAK2 (JH1 domain-catalytic, Y1007F,Y1008F) kinase (Homo sapiens, UniProt O60674, Y1007F/Y1008F).
T1 construct: made in house; host or cells: transiently transfected HEK293 cells
Description: JAK2 Binding Assay (JAK2 JH1 Domain Binding Assay). The conditions noted are these: JAK2 JH1 domain binding, qPCR detection; read-out: JAK2 Kd.

Another data set can be described thus: Caco2 Permeability Assay. In kind it is in vitro ADME. The following applies: human.
A short description of data set [2]: Hepatocyte Stability Assay, human hepatocytes. In kind it is in vitro ADME. The following applies: cryopreserved hepatocytes, read-out: Human Heps CLint. The procedure:
(§1) 10 mM stock solutions of test compound and positive control are prepared in DMSO. Stock solutions are diluted to 100 μM by combining 198 μL of 50% acetonitrile/50% water and 2 μL of 10 mM stock solution. Verapamil is used as positive control in the assay. Vials of cryopreserved hepatocytes are thawed in a 37° C. water bath with gently shaking. The contents are poured into the 50 mL thawing medium conical tube. Vials are centrifuged at 100 g for 10 minutes at room temperature. Thawing medium is aspirated and hepatocytes are re-suspended with serum-free incubation medium to yield ˜1.5×10^6 cells/mL. Cell viability and density are counted using a Trypan Blue exclusion, and then cells are diluted with serum-free incubation medium to a working cell density of 0.5×10^6 viable cells/mL. A portion of the hepatocytes at 0.5×10^6 viable cells/mL are boiled for 5 min prior to adding to the plate as negative control to eliminate the enzymatic activity so that little or no substrate turnover should be observed. Aliquots of 198 μL hepatocytes are dispensed into each well of a 96-well non-coated plate. The plate is placed in the incubator for approximately 10 minutes. Aliquots of 2 μL of the 100 μM test compound and 2 μL positive control are added into respective wells of a non-coated 96-well plate to start the reaction. The final concentration of test compound is 1 μM. This assay is performed in duplicate. The plate is incubated in the incubator for the designed time points. 25 μL of contents are transferred and mixed with 6 volumes (150 μL) of cold acetonitrile with internal standard (100 nM alprazolam, 200 nM labetalol, 200 nM caffeine and 200 nM diclofenac) to terminate the reaction at time points of 0, 15, 30, 60, 90 and 120 minutes. Samples are centrifuged for 25 minutes at 3,220 g and aliquots of 150 μL of the supernatants are used for LC-MS/MS analysis.

Data set [3] can be described thus: Hepatocyte Stability Assay, rat hepatocytes. The data set is classed as in vitro ADME. The conditions noted are these: cryopreserved hepatocytes, read-out: Rat Heps CLint. The procedure: as §1

T1 sequence (O60674 849-1124 Y1007F/Y1008F limits assumed): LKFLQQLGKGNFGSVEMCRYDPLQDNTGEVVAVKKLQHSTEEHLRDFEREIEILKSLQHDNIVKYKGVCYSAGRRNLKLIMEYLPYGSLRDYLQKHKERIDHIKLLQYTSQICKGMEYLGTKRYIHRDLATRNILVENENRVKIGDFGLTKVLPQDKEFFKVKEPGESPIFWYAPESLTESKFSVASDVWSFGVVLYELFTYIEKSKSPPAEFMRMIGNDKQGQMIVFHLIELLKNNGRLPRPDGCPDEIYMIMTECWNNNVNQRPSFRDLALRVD

A word on the Kd: it is a measure of binding affinity in units of concentration. As usually defined, the Papp A→B is the apparent permeability from the apical to the basolateral side of a cell layer. A high value points to fast passage. `CC(=O)Nc1cc(Oc2cnc3nc(Nc4cc(C(F)(F)F)cn(C)c4=O)n(C)c3c2Cl)c(F)cn1` [Example I-88, N-(4-((7-chloro-1-methyl-2-((1-methyl-2-oxo-5-(trifluoromethyl)-1,2-dihydropyridin-3-yl)amino)-1H-imidazo[4,5-b]pyridin-6-yl)oxy)-5-fluoropyridin-2-yl)acetamide]: the dissociation constant Kd in data set [1] was less than 10 nM. In addition, the efflux ratio at 2 h, 5 μM in “Caco2 Permeability Assay” (pH 7.4, Caco-2, 5 μM, read-out: Efflux Ratio (ER)) is not above 2. In “Caco2 Permeability Assay” (pH 7.4, Caco-2, apical to basolateral, 5 μM), this compound showed an apical-to-basolateral permeability (Papp A→B) at 2 h, 5 μM of 5 ×10⁻⁶ cm/s. Moreover, the CLint scaled at 1 μM is 12 to 20 mL/min/kg in data set [2] and 17 to 35 mL/min/kg in data set [3].

Source of the values: patent publication US11970494B2, “6-heteroaryloxy benzimidazoles and azabenzimidazoles as JAK2 inhibitors” (Ajax Therapeutics, Inc., priority 2021, dated 2024).
